Assay results published in paper PMC12616682, “Identification of a Highly Cooperative PROTAC Degrader Targeting GTP-Loaded KRAS(On) Alleles” (Journal of the American Chemical Society, 2025).
Where two headings read alike, the source gives them in different places.

How the values were obtained:
Cal-62 cells = experiment: CellTiter-Glo anti-proliferation, Cal-62; format: cell-based, human; conditions: Cal-62 (G12R)
KRAS^G12D in GP5d cells = molecular target: T1, KRAS^G12D in GP5d cells (Homo sapiens, UniProt P01116, G12D); experiment: Endogenous KRAS degradation by Western blot in GP5d cells; format: cell-based
T1 construct: comparison of the degradative effect on endogenous KRAS; host or cells: GP5d

Calu-6 cells = experiment: CellTiter-Glo anti-proliferation, Calu-6; format: cell-based, human; conditions: Calu-6 (Q61K)
KRAS^G12R in KP-2 cells = molecular target: T2, KRAS^G12R in KP-2 cells (Homo sapiens, UniProt P01116, G12R); experiment: Endogenous KRAS degradation by Western blot in KP-2 cells; format: cell-based; conditions: KP-2 (G12R)
T2 construct: host or cells: KP-2

KRAS^Q61L in SW948 cells = molecular target: T3, KRAS^Q61L in SW948 cells (Homo sapiens, UniProt P01116, Q61L); experiment: Endogenous KRAS degradation by Western blot in SW948 cells; format: cell-based
T3 construct: host or cells: SW948

[1] = molecular target: T4, HiBiT-KRAS^G12R in Cal-62 cells (Homo sapiens, UniProt P01116, G12R); experiment: HiBiT degradation assay, HiBiT-KRAS^G12R Cal-62 cells; format: cell-based; conditions: Cal-62 (HiBitG12R)
T4 construct: generated a HiBiT-KRAS^G12R Cal-62 knock-in cell line using the CRISPR Cas9 technology; endogenous in cells; host or cells: Cal-62 HiBiT KRAS G12R (in-house CRISPR knock-in)
Method: (Gibco) with 10% FBS in a humidiﬁed cell incubator at 37 °C and 5% CO2.
Plasmids pSpCas9 BB-2A-GFP (PX458) containing gRNA, Cas9 and GFP sequences and […] plasmid containing ssDNA donor template were purchased from Genscript. Cal-62 cells were plated at 5x10^5 cells in a 6-well plate and left to adhere overnight. The next day, the transfection plasmids (0.5 µg of each gRNA plasmid and 0.5 µg of donor template) were diluted in Opti-MEM, combined with Lipofectamine solution in Opti-mem according to the manufacturer’s protocol and incubated for 20 min at RT. The mixture was added to the cells and incubated for 24 h. The next day the media was exchanged, and the cells were left to incubate for another 24 h. GFP positive cells were single-cell sorted into 96-well plates using ﬂuorescence-activated cell sorting (FACS) at the Flow Cytometry and Cell Sorting Facility (University of Dundee). Sorted cells were left to grow in conditioned media supplemented with 20% FBS for 3 weeks. Formed colonies were tested for the expression of HiBiT KRAS using the Nano-Glo® HiBiT Lytic system (Promega). The positive clones were additionally tested for insertion of the HiBiT tag by western blotting for KRAS (mouse anti-KRAS, LsBio) and HiBiT (mouse anti-HiBiT, Promega) and the insert was further conﬁrmed by Sanger sequencing. […]
gRNA1: 5’ […] 3’, gRNA2: 5’ […] 3’, gRNA 3: 5’ […]
template DNA: 5’ caatccagctt tatttgacac tcattctctc aactctcatc tgattcttac tgttaatatt tatccaagag aactactgcc atgatgcttt aaaagttttt ctgtagctgt tgcatattga cttctaacac ttagaggtgg gggtccacta ggaaaactgt aacaataaga gtggagatag ctgtcagcaa cttttgtgag ggtgtgctac agggtgtaga gcactgtgaa gtctctacat gagtgaagtc atgatatgat cctttgagag cctttagccg ccgcagaaca gcagtctggc tatttagata gaacaacttg attttaagat aaaagaactg tctatgtagc atttatgcat ttttcttaag cgtcgatgga ggagtttgta aatgaagtac agttcattac gatacacgtc tgcagtcaac tggaattttc atgattgaat tttgtaaggt attttgaaat aatttttcat ataaaggtga gtttgtatta aaaggtactg gtggagtatt tgatagtgta ttaaccttat gtgtgacatg ttctaatata gtcacatttt cattattttt attataaggc ctgctgaaa […]
atg[…]act gaGtaCaaGctCgtAgtagttggag ctCgtggc gta ggc aag agt gcc ttA acAatCcaActaattcagaatcat tttgtggacg aatatgatcc aacaatagag gtaaatcttg ttttaatatg catattactg gtgcaggacc attctttgat acagataaag gtttctctga ccattttcat gagtacttat tacaagataa ttatgctgaa agttaagtta tctgaaatgt accttgggtt tcaagttata tgtaaccatt aatatgggaa ctttactttc cttgggagta tgtcagggtc catgatgttc actctctgtg cattttgatt ggaagtgtat ttcagagttt cgtgagaggg tagaaatttg tatcctatct ggacctaaaa gacaatcttt ttattgtaac ttttattttt atgggtttct tggtattgtg acatcatatg taaaggttag atttaattgt actagtgaaa tataattgtt tgatggttga tttttttaaa cttcatcagc agtattttcc tatcttcttc tcaacattag agaacctaca actaccggat aaattttaca aaatgaatta tttgcctaag gtgtggttta tataaaggta ctattaccaa ctttaccttt gctttgttgt catttttaaa tttactcaag gaaatactag gatttaaaaa aaaattcctt 3’
Degradation via Detection of Split Nanoluciferase (HiBiT)
To assess PROTAC-mediated degradation of HiBiT-tagged KRAS constructs, cells were seeded at […]
further incubated at 37 °C for 4 and 24 h. Following incubation, 20 µL per well of Promega Nano-Glo® HiBiT lytic detection reagent mix (Promega Nano-Glo® HiBiT Lytic Detection System […]
plotted as percent of DMSO control.

[2] = molecular target: T5, HiBiT-KRAS^G12D in GP5d cells (Homo sapiens, UniProt P01116, G12D); experiment: HiBiT degradation assay, HiBiT-KRAS^G12D GP5d cells; format: cell-based; conditions: for Dmax / DC50: Gp5D (HiBit-G12D)
T5 construct: host or cells: GP5d HiBiT KRAS G12D

[3] = molecular target: T6, KRAS^Q61K in Calu-6 cells (Homo sapiens, UniProt P01116, Q61K); experiment: Endogenous KRAS degradation by Western blot in Calu-6 cells; format: cell-based; conditions: Calu-6 (Q61K)
T6 construct: host or cells: Calu-6

[4] = molecular target: T7, KRAS^G12R in Cal-62 cells (Homo sapiens, UniProt P01116, G12R); experiment: Endogenous KRAS degradation by Western blot in Cal-62 cells; format: cell-based; conditions: Cal-62 (G12R)
T7 construct: Potent degradation of endogenous KRAS^G12R was achieved by ACBI4 in the Cal-62 cell line; host or cells: Cal-62

[5] = molecular target: T4, HiBiT-KRAS^G12R in Cal-62 cells; experiment: Kinetic degradation (live mode), Cal-62 HiBiT KRAS^G12R cells; format: cell-based; conditions: Cal62-HiBit (G12R)
KRAS^WT-GDP = KRAS^WT-GDP (Homo sapiens, UniProt P01116); experiment: Binary SPR KRAS^WT-GDP (protocol from Lito et al.); conditions: read-out: KRAS^WT-GDP KD
[6] = Homo sapiens, 72 h, read-out: CTG 72h Ic50

| Structure (SMILES) | Dmax (KRAS^G12D in GP5d cells; 4 h, read-out: DMax 4h) [%] | DC50 (KRAS^G12D in GP5d cells; 4 h, read-out: Dc50 4h) [nM] | Dmax (KRAS^G12D in GP5d cells; 18 h, read-out: DMax 18h) [%] | Dmax (KRAS^G12R in KP-2 cells; 18 h, read-out: DMax 18h) [%] | DC50 (KRAS^G12R in KP-2 cells; 18 h, read-out: Dc50 18h) [nM] | Dc50 4h (KRAS^Q61L in SW948 cells; 4 h) | Dmax (KRAS^Q61L in SW948 cells; 18 h, read-out: DMax 18h) [%] | Dmax ([1]; 24 h, read-out: DMax 24h) [%] | DC50 ([1]; 24 h, read-out: Dc50 24h) [nM] | Dmax ([2]; 4 h, read-out: DMax 4h) [%] | DC50 ([2]; 4 h, read-out: Dc50 4h) [nM] | Dmax ([2]; 24 h, read-out: DMax 24h) [%] | DC50 ([2]; 24 h, read-out: Dc50 24h) [nM] | Dmax ([3]; 4 h, read-out: DMax 4h) [%] | Dmax ([4]; 18 h, read-out: DMax 18h) [%] | DC50 ([4]; 18 h, read-out: Dc50 18h) [nM] | 1/K (Tau) [5] | Plateau (degradation rate) [5] | Plateu/ Tau [5] | further results |
| --- | --- | --- | --- | --- | --- | --- | --- | --- | --- | --- | --- | --- | --- | --- | --- | --- | --- | --- | --- | --- |
| CC(C)C(C(=O)N1C[C@H](O)C[C@H]1C(=O)NCc1ccc2cnn(C)c2c1)n1nnc2c1CCC(CCCN1CCCN(c3nccc(-c4noc([C@@]5(C)CCCc6sc(N)c(C#N)c65)n4)n3)[C@@H](C)C1)C2 (mixture of isomers) [Compound 4] | 83.5 | 68 | 96.5 | 70 | 224 | unstable | 50 | 87 | 183 | 83 | 14 | 94 | 4 | 25 | 93 | 418 | 1.972 µM | 0.2614 min⁻¹ | 2207 M⁻¹ s⁻¹ | IC50 (Cal-62 cells; [6]): 488 nM; DC50 (KRAS^G12D in GP5d cells; 18 h, read-out: Dc50 18h): 16 nM; CTG 72h Ic50 (Calu-6 cells): unstable; Dmax (KRAS^G12R in KP-2 cells; 4 h, read-out: DMax 4h): 37%; DC50 (KRAS^G12R in KP-2 cells; 4 h, read-out: Dc50 4h): 6 nM; Dmax (KRAS^Q61L in SW948 cells; 4 h, read-out: DMax 4h): 49%; Dc50 18h (KRAS^Q61L in SW948 cells; 18 h): unstable; Dmax ([1]; 4 h, read-out: DMax 4h): 76%; DC50 ([1]; 4 h, read-out: Dc50 4h): 163 nM; fold improvement in DC50 over 3 ([2]; HiBiT-KRAS^G12D, 24 h): ~9 fold; DC50 ([3]; 4 h, read-out: Dc50 4h): 146 nM; Dmax ([3]; 18 h, read-out: DMax 18h): 72%; DC50 ([3]; 18 h, read-out: Dc50 18h): 187 nM; Dmax ([4]; 4 h, read-out: DMax 4h): 64%; DC50 ([4]; 4 h, read-out: Dc50 4h): 1530 nM |
| Cc1ncsc1-c1ccc([C@H](CO)NC(=O)[C@@H]2C[C@@H](O)CN2C(=O)[C@H](C(C)C)n2cc(OCCCCN3CCCN(c4nccc(-c5noc([C@@]6(C)CCCc7sc(N)c(C#N)c76)n5)n4)[C@@H](C)C3)nn2)cc1 [ACBI3, reference compound] | 98.3 | 7.3 | 100 | 50 | 961 | unstable | 45 | 31 | 114 | 79 | 9.9 | 94 | 2.5 | 11 | 9 | 282 | unstable | unstable | unstable | CTG 72h Ic50 (Cal-62 cells): unstable; Kd (KRAS^WT-GDP): 4.9 ± 2.6 nM; IC50 (Calu-6 cells; [6]): 338 nM; DMax 4h (KRAS^G12R in KP-2 cells; 4 h): unstable; Dc50 4h (KRAS^G12R in KP-2 cells; 4 h): unstable; DMax 4h (KRAS^Q61L in SW948 cells; 4 h): unstable; DC50 (KRAS^Q61L in SW948 cells; 18 h, read-out: Dc50 18h): 10000 nM; DMax 4h ([1]; 4 h): unstable; Dc50 4h ([1]; 4 h): unstable; Dc50 4h ([3]; 4 h): unstable; DMax 18h ([3]; 18 h): unstable; Dc50 18h ([3]; 18 h): unstable; DMax 4h ([4]; 4 h): unstable; Dc50 4h ([4]; 4 h): unstable |
